From the NIST ThermoML archive (doi:10.1021/acs.jced.5b00778)

Assay: mn = molality of the nth substance listed, in mol/kg
Settings: 298.15 K; for surface tension liquid-gas: Ring tensiometer; for electrical conductivity: 100 kPa, Liquid, Alternating current cell with electrodes

CCCCCCCCCCCCCCCCOCC(O)C[N+](C)(C)CCCCCCCC.[Br-] (stereo not given) + O
Settings | electrical conductivity [S/m] | surface tension liquid-gas [mN/m]
m1 = 2.04e-06 | – | 69.09
m1 = 2.63e-06 | – | 68.55
m1 = 3.55e-06 | – | 61.94
m1 = 3.8e-06 | – | 60.95
m1 = 4.07e-06 | – | 55.95
m1 = 4.37e-06 | – | 48.71
m1 = 5.89e-06 | – | 44.65
m1 = 7.94e-06 | – | 41.6
m1 = 1.023e-05 | – | 37.64
m1 = 0.0067 | 5.6e-05 | –
m1 = 0.0076 | 5.8e-05 | –
m1 = 0.0086 | 6.4e-05 | –
m1 = 0.0095 | 7.4e-05 | –
m1 = 0.0105 | 7.7e-05 | –
m1 = 0.0114 | 7.8e-05 | –
m1 = 0.0124 | 9.3e-05 | –
m1 = 0.0133 | 9.6e-05 | –
m1 = 0.0143 | 0.000114 | –
m1 = 0.0152 | 0.000111 | –
m1 = 0.0162 | 0.000121 | –
m1 = 0.0171 | 0.000132 | –
m1 = 0.0181 | 0.000144 | –
m1 = 0.019 | 0.000147 | –
m1 = 0.0209 | 0.000168 | –
m1 = 0.0219 | 0.000176 | –
m1 = 0.0229 | 0.00019 | –
m1 = 0.0238 | 0.000201 | –
m1 = 0.0248 | 0.000212 | –

CCCCCCCCCCCCCCOCC(O)C[N+](C)(C)CCCCCCCC.[Br-] (stereo not given) + O
Settings | electrical conductivity [S/m] | surface tension liquid-gas [mN/m]
m1 = 3.388e-06 | – | 60.85
m1 = 4.169e-06 | – | 59.07
m1 = 5.012e-06 | – | 58.67
m1 = 6.761e-06 | – | 54.53
m1 = 8.511e-06 | – | 51.91
m1 = 1.175e-05 | – | 47.9
m1 = 1.514e-05 | – | 44.86
m1 = 1.995e-05 | – | 41.5
m1 = 2.512e-05 | – | 39.09
m1 = 3.388e-05 | – | 36.16
m1 = 4.571e-05 | – | 33.74
m1 = 0.009 | 0.000161 | –
m1 = 0.0144 | 0.000255 | –
m1 = 0.0198 | 0.000343 | –
m1 = 0.0252 | 0.000427 | –
m1 = 0.0306 | 0.000521 | –
m1 = 0.036 | 0.000636 | –
m1 = 0.0414 | 0.000683 | –

CCCCCCCCCCCCCC[N+](C)(C)CC(O)COCCCCCCCCCC.[Br-] (stereo not given) + O
Settings | electrical conductivity [S/m] | surface tension liquid-gas [mN/m]
m1 = 2.4e-07 | – | 70.44
m1 = 2.82e-07 | – | 69.87
m1 = 4.17e-07 | – | 69.41
m1 = 5.62e-07 | – | 65.68
m1 = 7.24e-07 | – | 57.18
m1 = 8.51e-07 | – | 53.77
m1 = 1.148e-06 | – | 48.14
m1 = 1.413e-06 | – | 44.06
m1 = 1.698e-06 | – | 40.95
m1 = 2.291e-06 | – | 35.65
m1 = 2.818e-06 | – | 33.63
m1 = 0.0013 | 2.8e-05 | –
m1 = 0.0027 | 4.9e-05 | –
m1 = 0.004 | 4.9e-05 | –
m1 = 0.0053 | 5.8e-05 | –
m1 = 0.0067 | 8e-05 | –
m1 = 0.008 | 0.000102 | –
m1 = 0.0093 | 0.000111 | –
m1 = 0.0107 | 0.000117 | –
m1 = 0.012 | 0.000157 | –
m1 = 0.0133 | 0.00017 | –
m1 = 0.0147 | 0.000166 | –
m1 = 0.016 | 0.000201 | –
m1 = 0.0174 | 0.000211 | –
m1 = 0.0187 | 0.000243 | –
m1 = 0.02 | 0.000261 | –
m1 = 0.0214 | 0.000284 | –
m1 = 0.0227 | 0.000297 | –
m1 = 0.024 | 0.000319 | –
m1 = 0.0254 | 0.00033 | –
m1 = 0.0267 | 0.000361 | –
m1 = 0.028 | 0.000376 | –

CCCCCCCCCCCCOCC(O)C[N+](C)(C)CCCCCCCC.[Br-] (stereo not given) + O
Settings | electrical conductivity [S/m] | surface tension liquid-gas [mN/m]
m1 = 1.047e-05 | – | 64.92
m1 = 1.738e-05 | – | 60.07
m1 = 2.089e-05 | – | 57.65
m1 = 2.818e-05 | – | 53.97
m1 = 3.548e-05 | – | 52.04
m1 = 4.898e-05 | – | 48.46
m1 = 6.31e-05 | – | 46.1
m1 = 8.511e-05 | – | 42.5
m1 = 0.0001047 | – | 39.79
m1 = 0.0001479 | – | 36.43
m1 = 0.0001905 | – | 33.42
m1 = 0.014 | 0.00023 | –
m1 = 0.028 | 0.00034 | –
m1 = 0.0561 | 0.00065 | –
m1 = 0.0841 | 0.00105 | –
m1 = 0.1121 | 0.00117 | –
m1 = 0.1402 | 0.00141 | –
m1 = 0.1682 | 0.00173 | –
m1 = 0.1962 | 0.00195 | –
m1 = 0.2243 | 0.00226 | –

CCCCCCCCCCOCC(O)C[N+](C)(C)CCCCCCCC.[Br-] (stereo not given) + O
Settings | electrical conductivity [S/m] | surface tension liquid-gas [mN/m]
m1 = 2.399e-05 | – | 63.84
m1 = 3.388e-05 | – | 60.78
m1 = 3.715e-05 | – | 59.62
m1 = 7.413e-05 | – | 53.71
m1 = 7.59e-05 | 0.00088 | –
m1 = 0.0001122 | – | 49.75
m1 = 0.0001514 | – | 47
m1 = 0.0001518 | 0.00161 | –
m1 = 0.0001905 | – | 45.13
m1 = 0.000235 | 0.0023 | –
m1 = 0.000263 | – | 41.95
m1 = 0.0003035 | 0.00316 | –
m1 = 0.0003715 | – | 39.03
m1 = 0.0004553 | 0.00439 | –
m1 = 0.0005248 | – | 35.86
m1 = 0.000535 | 0.00496 | –
m1 = 0.000607 | 0.00573 | –
m1 = 0.0007413 | – | 33.29
m1 = 0.0007588 | 0.00697 | –
m1 = 0.000835 | 0.00758 | –
m1 = 0.0009105 | 0.00827 | –
m1 = 0.001062 | 0.00937 | –
